According to patent publication EP0802184B1, “N-Benzyl-2-phenylindoles as estrogenic agents” (Wyeth, priority 1996, dated 1997):

How the values were obtained:
[1] = tested on: Ishikawa cells; experiment: Ishikawa Cell Alkaline Phosphatase Assay; format: cell-based, human; conditions: for % Activation (Compound + 1 nM 17β-estradiol): 10^-6 M compound + 10^-9 M 17β-estradiol; for % Activation (Compound + 1 nM 17β-estradiol) / % Activation: 48 h; for % Activation: compound alone, percent of response related to 1 nM 17β-estradiol
Procedure: Cells were treated for 48 h prior to assay. […] Sample population for at each dose was n=8. […] Plates are placed at -80°C for a minimum of 15 minutes. Plates are thawed at 37°C followed by the addition of 150μL of 0.1 M Tris-HCl, pH 9.8, containing 4 mM para-nitrophenylphosphate (pNPP) to each well (final concentration, 3 mM pNPP). Absorbance and slope calculations were made using the […] Application program (Bio-Tek Instruments, Inc., Winooski, VT). […] Various compounds were assayed for estrogenic activity by the alkaline phosphatase method and corresponding ED50 values (95% C.I.) were calculated. The four listed in the following were used as reference standards: A description of such methods is provided by Holinka, […]., Kuramoto, H. and Gurpide, E. (1986) Effects of steroid hormones and antisteroids on alkaline phosphatase activity in human endometrial cancer cells (Ishikawa Line). Cancer Research, 46:2771-2774, and by […]. and by […] simple and sensitive microtiter plate estrogen bioassay based on stimulation alkaline phosphatase in Ishikawa cells; […] Endocrinology, 6:2757-2762.

[2] = biological target: T1, estrogen receptor (Homo sapiens, UniProt P03372); experiment: 2X VIT ERE Transfection Assay (Infection Luciferase Assay); format: cell-based; conditions: 24 h; for % Activation with 1 nM 17β-estradiol: 1 uM compound + 1 nM 17β-estradiol (test for estrogen antagonism); for % Activation: compound alone (1 uM), compared to 17β-estradiol
T1 sequence (P03372 1-595): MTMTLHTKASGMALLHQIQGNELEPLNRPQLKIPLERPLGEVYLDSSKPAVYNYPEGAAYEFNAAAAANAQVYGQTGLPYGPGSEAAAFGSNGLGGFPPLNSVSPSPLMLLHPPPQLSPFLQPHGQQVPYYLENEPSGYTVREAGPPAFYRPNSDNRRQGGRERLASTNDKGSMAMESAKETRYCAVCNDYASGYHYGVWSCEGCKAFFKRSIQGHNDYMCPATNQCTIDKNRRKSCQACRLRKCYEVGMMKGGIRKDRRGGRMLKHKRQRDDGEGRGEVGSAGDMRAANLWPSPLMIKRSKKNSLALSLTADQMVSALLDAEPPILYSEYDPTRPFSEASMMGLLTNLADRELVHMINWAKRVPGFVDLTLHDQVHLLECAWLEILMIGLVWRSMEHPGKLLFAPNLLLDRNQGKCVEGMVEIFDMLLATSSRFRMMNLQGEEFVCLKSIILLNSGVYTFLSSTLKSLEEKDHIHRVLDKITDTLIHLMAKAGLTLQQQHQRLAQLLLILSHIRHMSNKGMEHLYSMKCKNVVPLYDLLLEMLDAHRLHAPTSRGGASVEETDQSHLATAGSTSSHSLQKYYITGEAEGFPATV
Procedure: Chinese Hamster Ovary cells (CHO) which had been stably transfected with the human estrogen receptor were maintained in DMEM + 10% fetal bovine serum (FBS). 48h prior to treatment the growth medium was replaced with DMEM lacking phenol red + 10% dextran coated charcoal stripped FBS (treatment medium). Cells were plated at a density of 5000 cells/well in 96-well plates containing 200 µL of medium/well.
Reporter DNA (Promega plasmid pGL2 containing two tandem copies of the vitellogenin ERE in front of the minimal thymidine kinase promoter driving the luciferase gene) was combined with the B-galactosidase expression plasmid pCH110 (Pharmacia) and carrier DNA (pTZ18U) in the following ratio: • 10uG of reporter DNA • 5uG of pCH110DNA • 5 uG of pTZ18U • 20 uG of DNA/1 mL of transfection solution
20 uL of this mixture was added to each well of cells and remained on the cells for 16 h. […] Each treatment condition was performed on 8 wells (n=8) which were incubated for 24 h prior to the luciferase assay.
After removing the PBS, 25 uL of Promega lysis buffer was added to each well and allowed to stand at room temperature for 15 min, followed by 15 min at -80°C and 15 min at 37°C. 20 uL of lysate was transferred to an opaque 96 well plate for luciferase activity evaluation and the remaining lysate (5 uL) was used for the B-galactosidase activity evaluation (normalize transfection). The luciferan substrate (Promega) was added in 100 uL aliquots to each well automatically by the luminometer and the light produced (relative light units) was read 10 seconds after addition.
To the remaining 5 uL of lysate 45 uL of PBS was added. Then 50 uL of Promega B-galactosidase 2X assay buffer was added, mixed well and incubated at 37°C for 1 hour. A plate containing a standard curve (0.1 to 1.5 milliunits in triplicate) was set up for each experimental run. The plates were analyzed on a Molecular Devices spectrophotometric plate reader at 410 nm. The optical densities for the unknown were converted to milliunits of activity by mathematical extrapolation from the standard curve.
The luciferase data was generated as relative light units (RLUs) accumulated during a 10 second measurement and automatically transferred to a JMP (SAS Inc) file where background RLUs were subtracted. The B-galactosidase values were automatically imported into the file and these values were divided into the RLUs to normalize the data. The mean and standard deviations were determined from a n=8 for each treatment. […] These techniques are described by Tzukerman, M.T., Esty, A., Santiso-Mere, D., Danielian, P., Parker, M.G., Stein, R.B., Pike, J.W. and McDonnel, D.P. (1994). Human estrogen receptor transactivational capacity was determined by both cellular and promoter context and mediated by two functionally distinct intramolecular regions (see Molecular Endocrinology, 8:21-30).

[3] = biological target: T1, estrogen receptor; experiment: In vitro estrogen receptor binding assay (competition with [3H]-17β-estradiol); design: expressed in transfected cells; host or cells: CHO cells (ribosome-free cytosol); conditions: relative to 17β-estradiol=100; cytosol of CHO cells overexpressing the estrogen receptor
Procedure: CHO cells overexpressing the estrogen receptor were grown in 150 mm^2 dishes in DMEM + 10% dextran coated charcoal, stripped fetal bovine serum. The plates were washed twice with PBS and once with 10mM Tris-HCl, pH 7.4, 1mM EDTA. Cells were harvested by scraping the surface and then the cell suspension was placed on ice. Cells were disrupted with a hand-held motorized tissue grinder using two, 10-second bursts. The crude preparation was centrifuged at 12,000g for 20 minutes followed by a 60 minute spin at 100,000g to produce a ribosome free cytosol. The cytosol was then frozen and stored at -80°C. Protein concentration of the cytosol was estimated using the BCA assay with reference standard protein.
100uG/100uL of the receptor preparation was aliquoted per well. […] The plate was incubated at room temperature for 2.5 h. At the end of this incubation period 150 uL of ice-cold dextran coated charcoal (5% activated charcoal coated with 0.05% 69K dextran) was added to each well and the plate was immediately centrifuged at 99g for 5 minutes at 4°C. 200 uL of the supernatant solution was then removed for scintillation counting. Samples were counted to 2% or 10 minutes, whichever occurs first. […] Also, wells containing radioactivity but no cytosol were processed with charcoal to estimate unremovable DPM of [^3H]
Counts per minute (CPM) of radioactivity were automatically converted to disintegrated per minute (DPM) by the Beckman LS 7500 Scintillation Counter using a set of quenched standards to generate a H# for each sample.
For the generation of IC50 curves, % binding is plotted vs compound. […] For a description of these methods, see Hulme, E.C., ed. 1992. Receptor-Ligand Interactions: A Practical Approach. IRL Press, New York.(see especially chapter 8).

EC50 ([1]; Ishikawa cells, reference standards, read-out: ED50 values (95% C.I.), estrogenic activity by the alkaline phosphatase method) | SMILES | % Activation (Compound + 1 nM 17β-estradiol) [1] | % Activation [1] | % Activation with 1 nM 17β-estradiol [2] | % Activation [2] | Estrogen Receptor Affinity (reported as RBA: 17β-estradiol=100) [3]
– | Cc1c(-c2ccc(O)cc2)n(Cc2ccc(C#CCN3CCCCC3)cc2)c2ccc(O)cc12 [Example 22, 2-(4-Hydroxy-phenyl)-3-methyl-1-[4-(3-piperidin-1-yl-prop-1-ynyl)-benzyl]-1H-indol-5-ol] | 23% | 27% | 19% | 17% | 23
1.42 nM | C[C@]12CC[C@@H]3c4ccc(O)cc4CC[C@H]3[C@@H]1CC[C@H]2O [17α-estradiol, reference compound] | – | – | – | – | –
– | Cc1c(-c2ccc(O)cc2)n(Cc2ccc(/C=C/C(=O)N(C)C)cc2)c2ccc(O)cc12 [Example 10, (E)-N, N-Dimethyl-3-{4-[5-hydroxy-2-(4-hydroxy-phenyl)-3-methyl-indol-1-ylmethyl]-phenyl}-acrylamide] | 19% | 6% | 2% | 1% | 20
– | Cc1c(-c2ccc(O)cc2)n(Cc2ccc(/C=C/C(=O)N3CCCC3)cc2)c2ccc(O)cc12 [Example 9, (E)-Pyrrolidino-3-{4-[5-hydroxy-2-(4-hydroxy-phenyl)-3-methyl-indol-1-ylmethyl]-phenyl}-acrylamide] | 11% | 3% | 8% | 6% | –
– | CC/C(=C(\c1ccccc1)c1ccc(OCCN(C)C)cc1)c1ccccc1 [tamoxifen, reference compound] | 45% | – | – | – | –
– | Cc1c(-c2ccc(O)cc2)n(Cc2ccc(C#CCN(C)C)cc2)c2ccc(O)cc12 [Example 21, 2-(4-Hydroxy-phenyl)-3-methyl-1-[4-(3-N, N-dimethyl-1-yl-prop-1-ynyl)-benzyl]-1H-indol-5-ol] | 34% | 34% | 34% | 34% | 53
– | O=C(c1ccc(OCCN2CCCCC2)cc1)c1c(-c2ccc(O)cc2)sc2cc(O)ccc12 [raloxifene, reference compound] | 5% | – | – | – | –
– | Cc1c(-c2ccc(O)cc2)n(Cc2ccc(/C=C/C(=O)N3CCOCC3)cc2)c2ccc(O)cc12 [Example 13] | 9% | 7% | 17% | 8% | –
– | CCCCN(CCCC)C(=O)/C=C/c1ccc(Cn2c(-c3ccc(O)cc3)c(C)c3cc(O)ccc32)cc1 [Example 11, (E)-N, N-Dibutyl-3-{4-[5-hydroxy-2-(4-hydroxy-phenyl)-3-methyl-indol-1-ylmethyl]-phenyl}-acrylamide] | 11% | 6% | 12% | 8% | 80
– | CCN(CC)C(=O)/C=C/c1ccc(Cn2c(-c3ccc(O)cc3)c(C)c3cc(O)ccc32)cc1 [Example 7, (E)-N, N-Diethyl-3-{4-[5-hydroxy-2-(4-hydroxy-phenyl)-3-methyl-indol-1-ylmethyl]-phenyl}-acrylamide] | 9% | 1% | 8% | 4% | 42
– | Cc1c(-c2ccc(O)cc2)n(Cc2ccc(/C=C/C(N)=O)cc2)c2ccc(O)cc12 [Example 14, (E)-3-{4-[5-hydroxy-2-(4-hydroxy-phenyl)-3-methyl-indol-1-ylmethyl]-phenyl}-acrylamide] | 14% | 2% | 57% | 19% | 32
– | Cc1c(-c2ccc(O)cc2)n(Cc2ccc(/C=C/C(=O)NC(C)(C)C)cc2)c2ccc(O)cc12 [Example 8, 1(E)-N-tert-butyl-3-{4-[5-hydroxy-2-(4-hydroxy-phenyl)-3-methyl-indol-1-ylmethyl]-phenyl}-acrylamide] | 22% | 10% | 78% | 6% | 40
– | CCCCN(C)C(=O)/C=C/c1ccc(Cn2c(-c3ccc(O)cc3)c(C)c3cc(O)ccc32)cc1 [Example 12, (E)-N-Butyl, N'-methyl-3-{4-[5-hydroxy-2-(4-hydroxy-phenyl)-3-methyl-indol-1-ylmethyl]-phenyl}-acrylamide] | 16% | 7% | 24% | 13% | 114
